For series [1] the following is noted: plasma concentration above which G tri-phosphate levels no longer increase; patients with leukemia; cited from earlier work.
Series [2] can be described thus: Estimating the maximum dissociated fraction of G and T in vivo (Eq. 1, Eq. 2). Also on record: species or system BALB/c mice. The conditions noted are these: for maximum dissociated fraction (fdiss. max), Eq. 1: from plasma AUCs of DcNP and CrEL. The text has this:
To estimate a maximum dissociated fraction (fdiss. max) of GT from DcNPs in vivo, a non-compartmental approach based on the plasma AUCs of equi-molar injections of DcNP and CrEL formulations was first utilized: […]
In Eq. 1, it is assumed that systemic clearance of G or T administered as DcNPs only occurs after drug dissociates from the particles, and dissociated drug has the same clearance pathways as the free drug control (CrEL). This non compartmental approach also assumes that drug clearance occurs solely in the central compartment. For the two drugs of interest, T is mainly metabolized in the liver by CYP3A4 and CYP2C8 but G is metabolized by ubiquitous cytidine deaminase (CDA). To understand the impact of the ubiquitous metabolism of G on its pharmacokinetic profile, the plasma concentration of the primary metabolite of G, dFdU, was used as a biomarker for dissociated drug. […] The equation below then provides an estimate of the fraction of the G dose metabolized to dFdU. If the calculated fraction metabolized (fdiss.G→dFdU) from Eq. 2 equals the fdiss. max from Eq. 1, it can be surmised that once G is released from DcNPs at all locations in the body it exchanges readily with the circulating G and subsequently undergoes metabolism (i.e., metabolism of all dissociated drug occurs in the central compartment). However, if some or all of the drug released from DcNPs in peripheral tissue is immediately metabolized to dFdU without exchanging with G in circulation, the fdiss.G→dFdU estimates from Eq. 2 would be expected to exceed the fdiss. max from Eq. 1 (i.e., dissociated drug is metabolized in both the central and peripheral compartments).
G AUC0→∞,CrEL is the plasma AUC of G given in free drug form. G AUC0→∞,DcNP is the total AUCs of associated and dissociated G given in DcNP form. dFdU AUC0→∞, CrEL is the AUC of dFdU formed after administration of free G. dFdU AUC0→∞,DcNP is the AUC of dFdU after dosing G in DcNP, which reflects the amount of dissociated G released from DcNPs and available for metabolic conversion. fdiss.G→dFdU represents the fraction of DcNP-dose that is released as free drug and available for conversion to dFdU by CDA.
The assumptions underlying Eq. 2 are as follows: [1] Dissociated (free) G, but not associated G, is readily available for metabolism by CDA. Dissociated G is rapidly and extensively metabolized to dFdU by CDA. […] A detailed pharmacokinetic model for the associated and dissociated species will be presented next to simulate the in vivo association of both drugs.

Series [3] is described as follows: Drug association efficiency (AE %) of GT DcNPs by dialysis under sink conditions. The format is physicochemical. Particulars: in vitro dialysis under sink conditions, 4 h, batches 1-5 and average. The procedure: Ethanol was removed by controlled solvent evaporation at 60° C., followed by vacuum desiccation to remove residual solvent. The dry film was rehydrated to 100 mM lipids in 0.45% NaCl with 20 mM NaHCO3 buffer at 60° C. for 2 h. Particle size was reduced at ˜40° C. using a bath sonicator (Avanti Polar Lipids, Inc. Alabaster, Ala.) (5 min on, […], 3 cycles). GT DcNP formulations were stored at room temperature for further use. Particle size was determined by a NICOMP 380 ZLS (Particle Sizing Systems, Santa Barbara, Calif.). Drug extraction with acetonitrile followed by HPLC were used to quantify drugs in formulations. Drug association was measured by dialysis (6-8 kDa) of DcNP against 0.9% NaCl 20 mM NaHCO3 buffer for 4 h and quantification by HPLC.
Drug association efficiency (AE %) was determined by dialyzing 100 μl of the DcNP suspension (6-8 k MWCO) against 1000×volume (100 mL, pH=7.4) of bicarbonate buffered saline for 4 hours at room temperature. Drugs were extracted by acetonitrile and drug concentrations in pre and post-dialysis DcNP suspensions were measured with a Shimadzu HPLC-UV system (Kyoto, Japan). Chromatographic separation was achieved using a Kinetex C18 column (100 Å, 5 μm, 4.6 mm×100 mm) (Phenomenex, Torrance, Calif.). The flow rate was set to 1.0 mL/min with a 10 μl sample injection volume. The mobile phase for separation consisted of pump A (Acetonitrile) and B (10 mM Ammonium Acetate in water). The gradient program used was as follows: pump B was set to 40%, and increased to 100% over 5 minutes. […] AE % was calculated as the […] concentrations of G or T.

Another series has as its system metastatic breast cancer. Particulars: cited from earlier work.

Where “and” joins values, the source holds several entries; their conditions need not be identical. Identical values can stand only once.

Turning to `Nc1ccn([C@@H]2O[C@H](CO)[C@@H](O)C2(F)F)c(=O)n1` [Gemcitabine, 4-amino-1-[(2R,4R,5R)-3,3-difluoro-4-hydroxy-5-(hydroxymethyl)oxolan-2-yl]pyrimidin-2-one], the “target concentration in plasma” value in series [1] was 3 µg/mL. Further, the “fraction of dissociated G accessible for metabolism (fdiss.G→dFdU), Eq. 2” value in series [2] (GT DcNP IV) is listed as 8%. Also, the “in vivo association to DcNPs per Eq. 1” value in series [2] (GT DcNP IV) was more than 98%. Further, the “maximum dissociated fraction (fdiss. max), Eq. 1” value in series [2] (GT DcNP IV) was 1.6%. Besides, in series [2] (after IV GT-DcNP administration, listed as G), the “G in DcNP dosage form not accessible for dFdU conversion / remaining associated to DcNPs in vivo” value is 92% and > 92%. The “AE % (association efficiency of drug to DcNP)” value in series [3] is 9%; in series [3] (listed as G), 9% and 9±1%; in series [3] (listed as GEM), 10% and 8% and 7%; in series [3] (listed as GEM, mean) it was 9%.
As to `CC(=O)O[C@H]1C(=O)[C@@]2(C)[C@H]([C@H](OC(=O)c3ccccc3)[C@]3(O)C[C@H](OC(=O)[C@H](O)[C@@H](NC(=O)c4ccccc4)c4ccccc4)C(C)=C1C3(C)C)[C@]1(OC(C)=O)CO[C@@H]1C[C@@H]2O` [Paclitaxel, [(1S,2S,3R,4S,7R,9S,10S,12R,15S)-4,12-diacetyloxy-15-[(2R,3S)-3-benzamido-2-hydroxy-3-phenylpropanoyl]oxy-1,9-dihydroxy-10,14,17,17-tetramethyl-11-oxo-6-oxatetracyclo[11.3.1.0^3,10.0^4,7]heptadec-13-en-2-yl] benzoate], in series [2] (GT DcNP IV), the “in vivo association to DcNPs per Eq. 1” value is listed as more than 75% and the “maximum dissociated fraction (fdiss. max), Eq. 1” value is recorded as 26.6%. The Median survival with metastatic breast cancer (first-line treatment, combination versus paclitaxel only) is reported as 15.8 months. Besides, the response rate in the series with metastatic breast cancer (gemcitabine 1250 mg/m^2 IV day 1, day 8 and paclitaxel 175 mg/m^2 IV combination compared to paclitaxel alone) is 26.2%.

Source of the values: patent US20230113802A1, “COMPOSITION AND METHOD TO PREPARE LONG-ACTING INJECTABLE SUSPENSION CONTAINING MULTIPLE CANCER DRUGS” (University of Washington, priority 2020, published 2023).
